Drawing on patent US12011444B2, “N-substituted indole derivatives as PGE2 receptor modulators” (Idorsia Pharmaceuticals Ltd, priority 2015, dated 2024), this text covers IC50 for 34 compounds.

One experiment has as its target PTGER2 (EP2) (Homo sapiens (Human), UniProt P43116). Description: hEP2 b-arrestin assay (PathHunter HEK 293 PTGER2 b-arrestin cells). The note with it: antagonistic activity on hEP2; mean where measured multiple times. The class given is cell-based. In outline:
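Readout is β-galactosidase complementation luminescence, expressed as percent of DMSO control (duplicates). PathHunter HEK293 EP2/β-arrestin 2 cells, grown 24 h, received compound for 15 min at 37 °C before a 120 min challenge with PGE2 at 5 μM final, followed by 1 h detection at room temperature.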

A further experiment has as its target PTRGER4 (EP4) (Homo sapiens (Human), UniProt P35408). The experiment can be described thus: hEP4 b-arrestin assay (PathHunter HEK 293 PTGER4 b-arrestin cells). The experiment is classed as cell-based. The note with it: antagonistic activity on hEP4; mean where measured multiple times. In outline: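 Antagonist mode: compound is given 15 min at 37 °C, then 20 nM (final) PGE2 for 120 min, in HEK293 cells stably expressing EP4 fused to ProLink and β-arrestin 2 fused to EA. Recruitment read as β-gal luminescence after 1 h reagent at room temperature, as percent of DMSO control.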

PTRGER4 (EP4), sequence (P35408 whole entry, looked up, the tested form may be a part): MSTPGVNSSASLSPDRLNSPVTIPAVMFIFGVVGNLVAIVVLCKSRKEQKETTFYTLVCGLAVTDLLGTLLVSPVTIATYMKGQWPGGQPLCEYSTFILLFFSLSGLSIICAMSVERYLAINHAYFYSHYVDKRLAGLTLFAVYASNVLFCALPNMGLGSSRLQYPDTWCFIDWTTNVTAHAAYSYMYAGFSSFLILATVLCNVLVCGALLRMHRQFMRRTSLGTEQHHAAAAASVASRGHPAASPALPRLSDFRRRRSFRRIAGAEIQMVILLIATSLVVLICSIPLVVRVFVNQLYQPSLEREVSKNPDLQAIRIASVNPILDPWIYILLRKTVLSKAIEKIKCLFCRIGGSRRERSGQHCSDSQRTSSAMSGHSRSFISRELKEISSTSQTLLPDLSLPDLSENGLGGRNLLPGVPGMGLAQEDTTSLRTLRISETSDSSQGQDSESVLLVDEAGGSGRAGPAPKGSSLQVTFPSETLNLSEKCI
PTGER2 (EP2), sequence (P43116 whole entry): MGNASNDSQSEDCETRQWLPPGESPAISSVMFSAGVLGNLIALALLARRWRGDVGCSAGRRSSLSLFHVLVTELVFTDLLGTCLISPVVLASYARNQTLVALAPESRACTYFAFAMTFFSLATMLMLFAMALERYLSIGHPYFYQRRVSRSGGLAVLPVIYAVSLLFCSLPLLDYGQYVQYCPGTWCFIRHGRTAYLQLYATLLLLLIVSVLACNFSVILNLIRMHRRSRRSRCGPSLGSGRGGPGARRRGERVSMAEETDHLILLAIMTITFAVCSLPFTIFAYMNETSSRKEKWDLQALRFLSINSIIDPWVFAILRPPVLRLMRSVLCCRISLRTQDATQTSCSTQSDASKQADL

Consider `CCOc1cc(-c2cc(NCCn3c(C)cc4c(F)ccc(F)c43)ncn2)ccc1C(=O)O` [compound 154, 4-{6-[2-(4,7-Difluoro-2-methyl-indol-1-yl)-ethylamino]-pyrimidin-4-yl}-2-ethoxy-benzoic acid], for which the concentration for half-maximal inhibition (IC50) (commonly the concentration needed to halve the response being measured) against PTGER2 (EP2) stood at 1 nM; against PTRGER4 (EP4) it was 628 nM.
On to `COc1ccc(Cl)c2c1cc(C)n2CCNc1cc(-c2cc(C)c(C(=O)O)c(Cl)c2)ncn1` [compound 155], for which the half-inhibitory concentration (IC50) against PTGER2 (EP2) came to 55 nM; at PTRGER4 (EP4), 251 nM.
Taken in the same sequence, the figures for `COc1ccc(F)c2c1cc(C)n2CCNc1cc(-c2cc(C)c(C(=O)O)c(Cl)c2)ncn1` [compound 156] were 78 nM and 93 nM.
Take `CCOc1cc(-c2cc(NCCn3c(C)cc4c(C)ccc(Cl)c43)ncn2)ccc1C(=O)O` [compound 157, 4-{6-[2-(7-Chloro-2,4-dimethyl-indol-1-yl)-ethylamino]-pyrimidin-4-yl}-2-ethoxy-benzoic acid]: the IC50 turned out to be 27 nM on PTGER2 (EP2) and 590 nM on PTRGER4 (EP4).
`CCOc1cc(-c2cc(NCCn3c(C)cc4c(OC)ccc(F)c43)ncn2)ccc1CO` [compound 159, (2-Ethoxy-4-{6-[2-(7-fluoro-4-methoxy-2-methyl-indol-1-yl)-ethylamino]-pyrimidin-4-yl}-phenyl)-methanol]: the concentration for half-maximal inhibition (IC50) at PTGER2 (EP2) worked out at 4 nM; against PTRGER4 (EP4), 75 nM.
For `CCc1cc(-c2cc(NCCn3c(C)cc4c(OC)cccc43)ncn2)cc(Cl)c1C(=O)O` [compound 160, 2-Chloro-6-ethyl-4-{6-[2-(4-methoxy-2-methyl-indol-1-yl)-ethylamino]-pyrimidin-4-yl}-benzoic acid], the IC50 amounted to 48 nM at PTGER2 (EP2) and 204 nM against PTRGER4 (EP4).
For `COc1ccc(F)c2c1cc(C)n2CCNc1cc(-c2ccc(S(C)(=O)=O)c(F)c2)ncn1` [compound 161], the half-inhibitory concentration (IC50) at PTGER2 (EP2) was found to be 396 nM; at PTRGER4 (EP4) it was 993 nM.
As for `CCOc1cc(-c2cc(NCCn3c(C)cc4c(C)c(F)cc(F)c43)ncn2)sc1C(=O)O` [compound 162, 5-{6-[2-(5,7-Difluoro-2,4-dimethyl-indol-1-yl)-ethylamino]-pyrimidin-4-yl}-3-ethoxy-thiophene-2-carboxylic acid], the IC50 against PTGER2 (EP2) is 3 nM; against PTRGER4 (EP4), 4 nM.
As for `CCNc1cc(-c2cc(NCCn3c(C)cc4cccc(C#N)c43)ncn2)ccc1C(=O)O` [compound 163], the concentration for half-maximal inhibition (IC50) on PTGER2 (EP2) was 111 nM; at PTRGER4 (EP4), 842 nM.
Consider `Cc1ccc(F)c2c1cc(C)n2CCNc1cc(-c2ccc3[nH]cnc3c2)ncn1` [compound 164], for which the IC50 was determined as 113 nM at PTGER2 (EP2) and 520 nM at PTRGER4 (EP4).
The corresponding values for `CC(C)Cc1cc(-c2cc(NCCn3c(C#N)cc4ccccc43)ncn2)ccc1C(=O)O` [compound 165, 4-{6-[2-(2-Cyano-indol-1-yl)-ethylamino]-pyrimidin-4-yl}-2-isobutyl-benzoic acid] are 19 nM and 230 nM.
In the case of `Cc1ccc(F)c2c1cc(C)n2CCNc1cc(-c2cc(F)c(S(N)(=O)=O)c(F)c2)ncn1` [compound 166], the IC50 on PTGER2 (EP2) was 131 nM; against PTRGER4 (EP4), 733 nM.
Taken in the same sequence, the figures for `CCNc1cc(-c2cc(NCCn3c(C)cc4cc(F)cc(F)c43)ncn2)ccc1C(=O)O` [compound 167, 4-{6-[2-(5,7-Difluoro-2-methyl-indol-1-yl)-ethylamino]-pyrimidin-4-yl}-2-ethylamino-benzoic acid] were 6 nM and 333 nM.
Turning to `Cc1ccc(F)c2c1cc(C)n2CCNc1cc(-c2ccc(C(=O)NCCO)cc2)ncn1` [compound 168], the IC50 at PTGER2 (EP2) is 146 nM; against PTRGER4 (EP4), 995 nM.
Taken in the same sequence, the figures for `Cc1cc2c(Cl)cccc2n1CCNc1cc(-c2ccc(C(=O)O)c(C3CC3)c2)ncn1` [compound 169] were 8 nM and 543 nM.
The corresponding values for `CCNc1cc(-c2cc(NCCn3c(C)cc4ccc(OC)cc43)ncn2)ccc1C(=O)O` [compound 170, 2-Ethylamino-4-{6-[2-(6-methoxy-2-methyl-indol-1-yl)-ethylamino]-pyrimidin-4-yl}-benzoic acid] are 1 nM and 350 nM.
Taken in the same sequence, the figures for `COc1ccc(F)c2c1cc(C)n2CCNc1cc(-c2ccc(S(N)(=O)=O)c(C)c2)ncn1` [compound 171] were 112 nM and 231 nM.
Regarding `COc1ccc(F)c2c1cc(C)n2CCNc1cc(-c2ccc(S(N)(=O)=O)c(Cl)c2)ncn1` [compound 172], the half-maximal inhibitory concentration (IC50) worked out at 54 nM against PTGER2 (EP2) and 536 nM at PTRGER4 (EP4).
Taken in the same sequence, the figures for `Cc1cc2c(F)ccc(F)c2n1CCNc1cc(-c2ccc(C(=O)O)c(C3CC3)c2)ncn1` [compound 173, 2-Cyclopropyl-4-{6-[2-(4,7-difluoro-2-methyl-indol-1-yl)-ethylamino]-pyrimidin-4-yl}-benzoic acid] were 5 nM and 894 nM.
As for `Cc1ccc(F)c2c1cc(C)n2CCNc1cc(-c2ccc(C(=O)O)c(C3CC3)c2)ncn1` [compound 174, 2-Cyclopropyl-4-{6-[2-(7-fluoro-2,4-dimethyl-indol-1-yl)-ethylamino]-pyrimidin-4-yl}-benzoic acid], the IC50 came out at 27 nM on PTGER2 (EP2) and 405 nM against PTRGER4 (EP4).
Taken in the same sequence, the figures for `COc1cccc2c1cc(C)n2CCNc1cc(-c2ccc(C(=O)O)c(C3CC3)c2)ncn1` [compound 175, 2-Cyclopropyl-4-{6-[2-(4-methoxy-2-methyl-indol-1-yl)-ethylamino]-pyrimidin-4-yl}-benzoic acid] were 6 nM and 529 nM.
With `Cc1cc(F)c(F)c2c1cc(C)n2CCNc1cc(-c2ccc(-c3c[nH]cn3)cc2)ncn1` [compound 176, [2-(6,7-Difluoro-2,4-dimethyl-indol-1-yl)-ethyl]-{6-[4-(1H-imidazol-4-yl)-phenyl]-pyrimidin-4-yl}-amine], the figures for the IC50 on PTGER2 (EP2) and on PTRGER4 (EP4) were 36 nM and 71 nM, respectively.
In the case of `Cc1cc(-c2ccc(-c3cc(NCCn4c(C)cc5c(C)cc(F)cc54)ncn3)cc2)n[nH]1` [compound 178, [2-(6-Fluoro-2,4-dimethyl-indol-1-yl)-ethyl]-{6-[4-(5-methyl-1H-pyrazol-3-yl)-phenyl]-pyrimidin-4-yl}-amine], the IC50 against PTGER2 (EP2) amounted to 18 nM; on PTRGER4 (EP4) it was 168 nM.
`COc1cccc2c1cc(C)n2CCNc1cc(-c2ccc(-c3noc(C)n3)cc2)ncn1` [compound 179, [2-(4-Methoxy-2-methyl-indol-1-yl)-ethyl]-{6-[4-(5-methyl-[1,2,4]oxadiazol-3-yl)-phenyl]-pyrimidin-4-yl}-amine]: the IC50 is 20 nM against PTGER2 (EP2) and 880 nM at PTRGER4 (EP4).
With `COc1cccc2c1cc(C)n2CCNc1cc(-c2ccc(-c3cc(N)no3)cc2)ncn1` [compound 180, {6-[4-(3-Amino-isoxazol-5-yl)-phenyl]-pyrimidin-4-yl}-[2-(4-methoxy-2-methyl-indol-1-yl)-ethyl]-amine], the IC50 on PTGER2 (EP2) worked out at 3 nM; at PTRGER4 (EP4), 16 nM.
In the case of `COc1ccc(F)c2c1cc(C)n2CCNc1cc(-c2cnc(N3CCOCC3)s2)ncn1` [compound 181], the values for the IC50 against PTGER2 (EP2) and on PTRGER4 (EP4) were 173 nM and 864 nM, respectively.
On to `Cc1cc(F)cc2c1cc(C)n2CCNc1cc(-c2ccc(-c3noc(=O)[nH]3)cc2)ncn1` [compound 182], for which the concentration for half-maximal inhibition (IC50) against PTGER2 (EP2) amounted to 56 nM; against PTRGER4 (EP4), 141 nM.
As for `Cc1cc(F)cc2c1cc(C)n2CCNc1cc(-c2ccc3c(C(=O)O)n[nH]c3c2)ncn1` [compound 183, 6-{6-[2-(6-Fluoro-2,4-dimethyl-indol-1-yl)-ethylamino]-pyrimidin-4-yl}-1H-indazole-3-carboxylic acid], the IC50 came to 49 nM on PTGER2 (EP2) and 637 nM against PTRGER4 (EP4).
Consider `COc1cc(F)cc2c1cc(C)n2CCNc1cc(-c2ccc(-c3ncno3)cc2)ncn1` [compound 184, [2-(6-Fluoro-4-methoxy-2-methyl-indol-1-yl)-ethyl]-[6-(4-[1,2,4]oxadiazol-5-yl-phenyl)-pyrimidin-4-yl]-amine], for which the IC50 against PTGER2 (EP2) stood at 15 nM; on PTRGER4 (EP4), 170 nM.
Take `Cc1ccc(F)c2c1cc(C)n2CCNc1cc(-c2ccc(-c3noc(=O)[nH]3)cc2)ncn1` [compound 185, 3-(4-{6-[2-(7-Fluoro-2,4-dimethyl-indol-1-yl)-ethylamino]-pyrimidin-4-yl}-phenyl)-4H-[1,2,4]oxadiazol-5-one]: the IC50 at PTGER2 (EP2) was 30 nM; against PTRGER4 (EP4), 302 nM.
In the case of `COc1ccc(F)c2c1cc(C)n2CCNc1cc(-c2ccc(-c3ncno3)cc2)ncn1` [compound 186, [2-(7-Fluoro-4-methoxy-2-methyl-indol-1-yl)-ethyl]-[6-(4-[1,2,4]oxadiazol-5-yl-phenyl)-pyrimidin-4-yl]-amine], the figures for the IC50 against PTGER2 (EP2) and against PTRGER4 (EP4) were 7 nM and 124 nM, respectively.
With `Cc1cc(F)c(F)c2c1cc(C)n2CCNc1cc(-c2ccc(-c3ncno3)cc2)ncn1` [compound 187, [2-(6,7-Difluoro-2,4-dimethyl-indol-1-yl)-ethyl]-[6-(4-[1,2,4]oxadiazol-5-yl-phenyl)-pyrimidin-4-yl]-amine], the half-maximal inhibitory concentration (IC50) stood at 20 nM against PTGER2 (EP2) and 198 nM at PTRGER4 (EP4).
Take `COc1cc(F)cc2c1cc(C)n2CCNc1cc(-c2ccc(-c3c[nH]cn3)cc2)ncn1` [compound 188, [2-(6-Fluoro-4-methoxy-2-methyl-indol-1-yl)-ethyl]-{6-[4-(1H-imidazol-4-yl)-phenyl]-pyrimidin-4-yl}-amine]: the IC50 on PTGER2 (EP2) was found to be 17 nM; on PTRGER4 (EP4) it was 43 nM.
For `Cc1ccc(F)c2c1cc(C)n2CCNc1cc(-c2ccc(-c3cc(N)no3)cc2)ncn1` [compound 189, {6-[4-(3-Amino-isoxazol-5-yl)-phenyl]-pyrimidin-4-yl}-[2-(7-fluoro-2,4-dimethyl-indol-1-yl)-ethyl]-amine], the 50% inhibitory concentration (IC50) worked out at 19 nM at PTGER2 (EP2) and 106 nM against PTRGER4 (EP4).
